From patent publication US20210070735A1, “RIP1 INHIBITORY COMPOUNDS AND METHODS FOR MAKING AND USING THE SAME” (Rigel Pharmaceuticals, Inc., priority 2019, published 2021)

How the values were obtained:
human RIP1 = molecular target: T1, human RIP1 (Homo sapiens, UniProt Q13546); experiment: U937 cell necroptosis assay (TNFa + zVAD, CellTiter-Glo); assay type: cell-based; settings: U937 Zvad TNF CTG Recovery, U937 cells, TNFa 2 ng/mL + zVAD-fmk, 18 hours
T1 construct: U937 and L929 cells were obtained from the American Type Culture Collection; host or cells: U937
T1 sequence (Q13546 1-671): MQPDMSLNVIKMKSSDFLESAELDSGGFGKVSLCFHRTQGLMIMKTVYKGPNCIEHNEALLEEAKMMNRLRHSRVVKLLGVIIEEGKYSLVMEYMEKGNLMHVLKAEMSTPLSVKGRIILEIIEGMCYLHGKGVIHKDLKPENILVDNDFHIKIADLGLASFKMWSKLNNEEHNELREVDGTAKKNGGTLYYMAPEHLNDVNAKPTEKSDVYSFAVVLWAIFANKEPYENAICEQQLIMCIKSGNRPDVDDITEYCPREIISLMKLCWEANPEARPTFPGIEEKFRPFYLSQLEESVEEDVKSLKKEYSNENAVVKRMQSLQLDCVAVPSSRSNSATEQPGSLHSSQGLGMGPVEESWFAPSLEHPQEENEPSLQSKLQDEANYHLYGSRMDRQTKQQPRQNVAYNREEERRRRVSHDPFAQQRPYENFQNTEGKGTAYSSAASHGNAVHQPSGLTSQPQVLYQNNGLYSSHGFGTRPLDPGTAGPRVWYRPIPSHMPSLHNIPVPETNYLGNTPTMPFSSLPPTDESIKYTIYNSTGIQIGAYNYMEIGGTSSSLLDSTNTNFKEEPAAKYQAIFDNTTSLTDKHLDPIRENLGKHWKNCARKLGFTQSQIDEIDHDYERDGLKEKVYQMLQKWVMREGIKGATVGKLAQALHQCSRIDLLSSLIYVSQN
Protocol: (§1) In this example, U937 and L929 cells were exposed to compounds of the present disclosure and a cell necroptosis assay was conducted to evaluate the compounds' activity against human RIP1 and murine RIP1.
(§2) U937 and L929 cells were obtained from the American Type Culture Collection (Manassa, Va., USA). Both cells were maintained in logarithmic growth phase in complete RPMI 1640 media (Sigma, ST Louis, Mo., USA) supplemented with 10% fetal bovine serum (Sigma, ST Louis, Mo., USA) at 37° C. with 5% CO2. For necroptosis assay, L929 cells were plated for 18 h in 100 µL/well medium at 10K cells/well in Costar 96-well black clear-bottom plates (Fisher Scientific, Hampton, N.H., USA); U937 cells were plated on the day of the assay in 50 µL/well medium containing 60 uM zVAD-fmk (Lonza, Basel, Switzerland) at 50K cells/well. Medium from L929 cells were removed from the 96-well plates and replaced with 50 µL/well new medium containing 40 uM zVAD-fmk. Each compound of the present disclosure evaluated in this example was serially diluted in DMSO from 2.5 mM in 4-fold dilutions, and then diluted 1:125 in complete medium. 50 µL/well 2× of the compound was then added to the cells in the plates. The cells were pre-incubated with the compound for 1 hour at 37° C. with 5% CO2 and before addition of 10 µL/well 11×TNFa (Peprotech, Rocky Hill, N.J., USA) to give a final concentration of 2 ng/mL for TNFa. The relative amount of necroptosis cells was determined by luminescent using a Wallac Victor2 Luminometer (PerkinElmer, Waltham, Mass., USA) and a CellTiter-Glo® Luminescent Cell Viability Reagent Assay (Promega, Madison, Wis., USA) added per manufacturer instructions after 18 hours of TNFa stimulation at 37° C. with 5% CO2.Results from this example are summarized in Table 2. This example establishes that embodiments of the compounds described herein have unexpectedly potent activity against human RIP1 and murine RIP1, which allows their assessment in in vivo mouse models of disease.

RIPK1 = molecular target: T2, RIPK1 (Homo sapiens, UniProt Q13546); experiment: RIPK1 ADP-Glo biochemical kinase assay; settings: 30 min at 30° C.
T2 sequence (Q13546 1-671): T1 sequence (Q13546 1-671)
Protocol: The final reaction volume was 5.0 μl.
Adding 5 μl of ADP-Glo™ terminated the reaction.

murine RIP1 = molecular target: T3, murine RIP1 (Mus musculus, UniProt Q60855); experiment: L929 cell necroptosis assay (TNFa + zVAD, CellTiter-Glo); assay type: cell-based
T3 construct: U937 and L929 cells were obtained from the American Type Culture Collection; host or cells: L929
T3 sequence (Q60855 1-656): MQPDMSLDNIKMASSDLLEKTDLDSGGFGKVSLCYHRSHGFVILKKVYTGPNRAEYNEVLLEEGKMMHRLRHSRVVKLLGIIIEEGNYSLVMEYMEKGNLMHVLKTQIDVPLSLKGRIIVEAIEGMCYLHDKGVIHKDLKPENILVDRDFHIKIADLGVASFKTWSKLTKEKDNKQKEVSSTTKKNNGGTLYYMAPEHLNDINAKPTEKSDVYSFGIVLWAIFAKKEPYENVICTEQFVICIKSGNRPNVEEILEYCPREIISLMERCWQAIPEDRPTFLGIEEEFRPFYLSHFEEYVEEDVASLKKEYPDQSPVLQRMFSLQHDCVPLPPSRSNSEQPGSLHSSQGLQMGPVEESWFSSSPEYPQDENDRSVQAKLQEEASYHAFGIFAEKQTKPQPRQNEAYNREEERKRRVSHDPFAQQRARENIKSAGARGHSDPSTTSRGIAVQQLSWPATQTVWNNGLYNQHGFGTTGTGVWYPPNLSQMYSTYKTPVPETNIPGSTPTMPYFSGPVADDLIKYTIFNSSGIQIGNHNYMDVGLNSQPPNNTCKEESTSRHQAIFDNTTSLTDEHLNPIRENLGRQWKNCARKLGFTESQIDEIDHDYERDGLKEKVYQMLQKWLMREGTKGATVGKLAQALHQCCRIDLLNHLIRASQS
Protocol: as §1, §2

Structure (SMILES)	IC50 (RIPK1)	IC50 (human RIP1)	IC50 (murine RIP1)
CN1C(=O)C(NC(=O)c2ncn(Cc3c(Cl)cccc3Cl)n2)CCc2ccc(CN3CCN(c4ccncc4)CC3)cc21 (racemic) [Compound I-3, (±)-1-(2,6-Dichlorobenzyl)-N-(1-methyl-2-oxo-8-((4-(pyridin-4-yl)piperazin-1-yl)methyl)-2,3,4,5-tetrahydro-1H-benzo[b]azepin-3-yl)-1H-1,2,4-triazole-3-carboxamide]	30.7 nM	5.8 nM	2530 nM
CN1C(=O)C(NC(=O)c2n[nH]c(Cc3ccccc3)n2)CCc2ccc(CN3CCN(c4ccncc4)CC3)cc21 (racemic) [Compound I-4, (±)-5-Benzyl-N-(1-methyl-2-oxo-8-((4-(pyridin-4-yl)piperazin-1-yl)methyl)-2,3,4,5-tetrahydro-1H-benzo[b]azepin-3-yl)-1H-1,2,4-triazole-3-carboxamide]	525 nM	53.9 nM	
O=C(NC1CCc2ccc(CN3CCN(c4ccncc4)CC3)cc2NC1=O)c1ncn(Cc2c(Cl)cccc2Cl)n1 (racemic) [Compound I-5, (±)-1-(2,6-Dichlorobenzyl)-N-(2-oxo-8-((4-(pyridin-4-yl)piperazin-1-yl)methyl)-2,3,4,5-tetrahydro-1H-benzo[b]azepin-3-yl)-1H-1,2,4-triazole-3-carboxamide]	65.6 nM	16.4 nM	
O=C(NC1CCc2ccc(CN3CCN(c4ccncc4)CC3)cc2NC1=O)c1n[nH]c(Cc2ccccc2)n1 (racemic) [Compound I-6, (±)-5-Benzyl-N-(2-oxo-8-((4-(pyridin-4-yl)piperazin-1-yl)methyl)-2,3,4,5-tetrahydro-1H-benzo[b]azepin-3-yl)-1H-1,2,4-triazole-3-carboxamide]	330 nM	1460 nM	
O=C(NC1CCc2ccc(CN3CCN(c4ccncc4)CC3)cc2NC1=O)c1n[nH]c(Cc2ccccc2)n1 (racemic) [Compound I-7, (±)-5-Benzyl-N-(2-oxo-8-((4-(pyridin-4-yl)piperazin-1-yl)methyl)-2,3,4,5-tetrahydro-1H-benzo[b]azepin-3-yl)-1H-1,2,4-triazole-3-carboxamide]	806 nM	2650 nM	
CN1C(=O)C(NC(=O)c2nccc(-c3ccccc3)n2)CCc2ccc(CN3CCn4ncnc4C3)cc21 (racemic) [Compound I-39, (±)-N-(8-((5,6-dihydro-[1,2,4]triazolo[1,5-a]pyrazin-7(8H)-yl)methyl)-1-methyl-2-oxo-2,3,4,5-tetrahydro-1H-benzo[b]azepin-3-yl)-4-phenylpyrimidine-2-carboxamide]		216 nM	

Further lines, with some results ahead:

IC50 (RIPK1)	Structure (SMILES)	IC50 (human RIP1)	IC50 (murine RIP1)
378 nM	CN1C(=O)C(NC(=O)c2n[nH]c(Cc3ccccc3)n2)CCc2ccc(CN3CCn4ncnc4C3)cc21 (racemic) [Compound I-8, (±)-5-Benzyl-N-(8-((5,6-dihydro-[1,2,4]triazolo[1,5-a]pyrazin-7(8H)-yl)methyl)-1-methyl-2-oxo-2,3,4,5-tetrahydro-1H-benzo[b]azepin-3-yl)-1H-1,2,4-triazole-3-carboxamide]	9.3 nM	5440 nM
414 nM	O=C(NC1CCc2ccc(N3CC4(CCOCC4)C3)cc2NC1=O)c1n[nH]c(Cc2ccccc2)n1 (racemic) [Compound I-9, (±)-5-Benzyl-N-(2-oxo-8-(7-oxa-2-azaspiro[3.5]nonan-2-yl)-2,3,4,5-tetrahydro-1H-benzo[b]azepin-3-yl)-1H-1,2,4-triazole-3-carboxamide]	13.1 nM	30800 nM
808 nM	CN1C(=O)C(NC(=O)c2n[nH]c(Cc3ccccc3)n2)CCc2ccc(N3CCN4CCC3CC4)cc21 (racemic) [Compound I-11, (±)-N-(8-(1,4-Diazabicyclo[3.2.2]nonan-4-yl)-1-methyl-2-oxo-2,3,4,5-tetrahydro-1H-benzo[b]azepin-3-yl)-5-benzyl-1H-1,2,4-triazole-3-carboxamide]	1080 nM	
444 nM	CN1C(=O)C(NC(=O)c2n[nH]c(Cc3ccccc3)n2)CCc2ccc(N3CC4(CCCCC4)C3)cc21 (racemic) [Compound I-12, (±)-5-Benzyl-N-(1-methyl-2-oxo-8-(2-azaspiro[3.5]nonan-2-yl)-2,3,4,5-tetrahydro-1H-benzo[b]azepin-3-yl)-1H-1,2,4-triazole-3-carboxamide]	5.2 nM	43.2 nM
373 nM	CN1C(=O)C(NC(=O)c2n[nH]c(Cc3ccccc3)n2)CCc2ccc(N3CCC4(CCOCC4)CC3)cc21 (racemic) [Compound I-13, (±)-5-Benzyl-N-(1-methyl-2-oxo-8-(3-oxa-9-azaspiro[5.5]undecan-9-yl)-2,3,4,5-tetrahydro-1H-benzo[b]azepin-3-yl)-1H-1,2,4-triazole-3-carboxamide]	2.1 nM	94.9 nM
129 nM	[2H]C([2H])([2H])N1C(=O)C(NC(=O)c2n[nH]c(Cc3ccccc3)n2)CCc2ccc(C#CC(C)(C)O)cc21 (racemic) [Compound I-14, (±)-5-Benzyl-N-(8-(3-hydroxy-3-methylbut-1-yn-1-yl)-1-(methyl-d)-2-oxo-2,3,4,5-tetrahydro-1H-benzo[b]azepin-3-yl)-1H-1,2,4-triazole-3-carboxamide]	7.3 nM	43.3 nM
106 nM	[2H]C([2H])([2H])N1C(=O)C(NC(=O)c2n[nH]c(Cc3ccccc3)n2)CCc2ccc(N3CC4(CCOCC4)C3)cc21 (racemic) [Compound I-15, (±)-5-Benzyl-N-(1-(methyl-d3)-2-oxo-8-(7-oxa-2-azaspiro[3.5]nonan-2-yl)-2,3,4,5-tetrahydro-1H-benzo[b]azepin-3-yl)-1H-1,2,4-triazole-3-carboxamide]	7.9 nM	257 nM
661 nM	O=C(NC1CCc2ccc(CN3CCN(c4ccncc4)CC3)cc2NC1=O)c1cc(Oc2ccccc2)ccn1 (racemic) [Compound I-26, (±)-N-(2-Oxo-8-((4-(pyridin-4-yl)piperazin-1-yl)methyl)-2,3,4,5-tetrahydro-1H-benzo[b]azepin-3-yl)-4-phenoxypicolinamide]	3890 nM	
4460 nM	CN1C(=O)C(NC(=O)c2nccc(-c3ccccc3)n2)CCc2ccc(CN3CCN(c4ccncc4)CC3)cc21 (racemic) [Compound I-38, (±)-N-(1-Methyl-2-oxo-8-((4-(pyridin-4-yl)piperazin-1-yl)methyl)-2,3,4,5-tetrahydro-1H-benzo[b]azepin-3-yl)-4-phenylpyrimidine-2-carboxamide]	6360 nM	
